Patent publication US7205382B2, “Peptides, the production and use thereof for binding immunoglobulins” (Fresenius Medical Care Affina GmbH, priority 2000, dated 2007)
Bridge positions count the residues as written; N and C are the ends. Square brackets hold non-standard residues; d marks the D form. Ends that are not written are not given here. cellulose = not defined here; βAla = NCCC(=O)O

How the values were obtained:
Assay type in all cases: binding
Parameters in all cases: key: No binding of immunoglobulin for the defined peptide variant, detection negative: 0; Binding of immunoglobulin for the defined peptide variant, detection positive: +
[1] = test system: serum albumin; test: Cellulose-immobilized 13-mer peptide variants incubated with serum albumin (negative control), anti-human IgG-AP detection; conditions: blocking buffer without addition, 3 h room temperature
Protocol: (§1) Peptides consisting of 13 amino acids were synthesized by solid phase synthesis (Houghten, 1985) on a cellulose matrix with (βA)(βA) as a spacer group.
(§2) The immobilized peptides were tested for their immunoglobulin binding capability by incubation with human IgG-Fc in a buffered solution and by incubation with human plasma.
(§3) Thus, the peptide variants immobilized on solid phases were washed with T-TBS buffer (136 mM NaCl, 1.6 mM KCl, 0.05% (v/v) Tween 20, 50 mM Tris-HCl, pH 8.0) and subsequently treated with blocking buffers (5% (w/v) saccharose, 4% (w/v) bovine serum albumin in T-TBS). Incubation of the immobilized peptides with IgG-Fc (1 μg/ml) in blocking buffer and human serum (diluted 1:10,000 in blocking buffer) was effected for 3 h at room temperature. For checking the specificity of the binding, buffered serum albumin solution (blocking buffer) without addition was included as a control. Thereafter, the peptide variants immobilized on the solid phases were washed three more times with T-TBS buffer.
(§4) After incubation with alkaline phosphatase-conjugated anti-human IgG antibody (1.2 μg/ml) in blocking buffer, detection of the immunoglobulin binding was effected by means of NBT (nitroblue tetrazolium chloride)/BCIP (5-bromo-4-chloro-3-indolyl phosphate toluidine salt) as a substrate (200 μl of parent solution (18.75 mg/ml NBT and 9.4 mg/ml BCIP in 67% (v/v) DMSO) in 10 ml developing buffer (100 mM Tris-HCl, 100 mM NaCl, 5 mM MgCl2, pH 9.5)).

[2] = test system: human IgG-Fc; test: Cellulose-immobilized 13-mer peptide variants incubated with human IgG-Fc, anti-human IgG-AP detection; conditions: IgG-Fc 1 μg/ml in blocking buffer, 3 h room temperature
Protocol: as §1, §2, §3, §4

[3] = test system: immunoglobulins in human plasma; test: Cellulose-immobilized 13-mer peptide variants incubated with human plasma, anti-human IgG-AP detection; conditions: human plasma as sample, diluted 1:10,000 in blocking buffer, 3 h room temperature
Protocol: as §1, §2, §3, §4

02A: cellulose-bound 13-mer variant DAAWHLGELVWCT-(βA)(βA) (DAAWHLGELVWCT[βAla][βAla]; not fully specified; printed as DAAWHLGELVWCT-(βA)(βA); also: cellulose-bound)
0: Result for incubation with serum albumin (immunoglobulin binding detection) [1] | Result for incubation with human IgG-Fc (immunoglobulin binding detection) [2] | Result for incubation with human plasma (immunoglobulin binding detection) [3]

02D: cellulose-bound 13-mer variant DDAWHLGELVWCT-(βA)(βA) (DDAWHLGELVWCT[βAla][βAla]; not fully specified; printed as DDAWHLGELVWCT-(βA)(βA); also: cellulose-bound)
0: Result for incubation with serum albumin (immunoglobulin binding detection) [1] | Result for incubation with human IgG-Fc (immunoglobulin binding detection) [2] | Result for incubation with human plasma (immunoglobulin binding detection) [3]

02E: cellulose-bound 13-mer variant DEAWHLGELVWCT-(βA)(βA) (DEAWHLGELVWCT[βAla][βAla]; not fully specified; printed as DEAWHLGELVWCT-(βA)(βA); also: cellulose-bound)
0: Result for incubation with serum albumin (immunoglobulin binding detection) [1] | Result for incubation with human IgG-Fc (immunoglobulin binding detection) [2] | Result for incubation with human plasma (immunoglobulin binding detection) [3]

02F: cellulose-bound 13-mer variant DFAWHLGELVWCT-(βA)(βA) (DFAWHLGELVWCT[βAla][βAla]; not fully specified; printed as DFAWHLGELVWCT-(βA)(βA); also: cellulose-bound)
0: Result for incubation with serum albumin (immunoglobulin binding detection) [1] | Result for incubation with human IgG-Fc (immunoglobulin binding detection) [2] | Result for incubation with human plasma (immunoglobulin binding detection) [3]

02G: cellulose-bound 13-mer variant DGAWHLGELVWCT-(βA)(βA) (DGAWHLGELVWCT[βAla][βAla]; not fully specified; printed as DGAWHLGELVWCT-(βA)(βA); also: cellulose-bound)
0: Result for incubation with serum albumin (immunoglobulin binding detection) [1] | Result for incubation with human IgG-Fc (immunoglobulin binding detection) [2] | Result for incubation with human plasma (immunoglobulin binding detection) [3]

02H: cellulose-bound 13-mer variant DHAWHLGELVWCT-(βA)(βA) (DHAWHLGELVWCT[βAla][βAla]; not fully specified; printed as DHAWHLGELVWCT-(βA)(βA); also: cellulose-bound)
0: Result for incubation with serum albumin (immunoglobulin binding detection) [1] | Result for incubation with human IgG-Fc (immunoglobulin binding detection) [2] | Result for incubation with human plasma (immunoglobulin binding detection) [3]

02I: cellulose-bound 13-mer variant DIAWHLGELVWCT-(βA)(βA) (DIAWHLGELVWCT[βAla][βAla]; not fully specified; printed as DIAWHLGELVWCT-(βA)(βA); also: cellulose-bound)
0: Result for incubation with serum albumin (immunoglobulin binding detection) [1] | Result for incubation with human IgG-Fc (immunoglobulin binding detection) [2] | Result for incubation with human plasma (immunoglobulin binding detection) [3]

02K: cellulose-bound 13-mer variant DKAWHLGELVWCT-(βA)(βA) (DKAWHLGELVWCT[βAla][βAla]; not fully specified; printed as DKAWHLGELVWCT-(βA)(βA); also: cellulose-bound)
0: Result for incubation with serum albumin (immunoglobulin binding detection) [1] | Result for incubation with human IgG-Fc (immunoglobulin binding detection) [2] | Result for incubation with human plasma (immunoglobulin binding detection) [3]

02L: cellulose-bound 13-mer variant DLAWHLGELVWCT-(βA)(βA) (DLAWHLGELVWCT[βAla][βAla]; not fully specified; printed as DLAWHLGELVWCT-(βA)(βA); also: cellulose-bound)
0: Result for incubation with serum albumin (immunoglobulin binding detection) [1] | Result for incubation with human IgG-Fc (immunoglobulin binding detection) [2] | Result for incubation with human plasma (immunoglobulin binding detection) [3]

02M: cellulose-bound 13-mer variant DMAWHLGELVWCT-(βA)(βA) (DMAWHLGELVWCT[βAla][βAla]; not fully specified; printed as DMAWHLGELVWCT-(βA)(βA); also: cellulose-bound)
0: Result for incubation with serum albumin (immunoglobulin binding detection) [1] | Result for incubation with human IgG-Fc (immunoglobulin binding detection) [2] | Result for incubation with human plasma (immunoglobulin binding detection) [3]

02N: cellulose-bound 13-mer variant DNAWHLGELVWCT-(βA)(βA) (DNAWHLGELVWCT[βAla][βAla]; not fully specified; printed as DNAWHLGELVWCT-(βA)(βA); also: cellulose-bound)
0: Result for incubation with serum albumin (immunoglobulin binding detection) [1] | Result for incubation with human IgG-Fc (immunoglobulin binding detection) [2] | Result for incubation with human plasma (immunoglobulin binding detection) [3]

02P: cellulose-bound 13-mer variant DPAWHLGELVWCT-(βA)(βA) (DPAWHLGELVWCT[βAla][βAla]; not fully specified; printed as DPAWHLGELVWCT-(βA)(βA); also: cellulose-bound)
0: Result for incubation with serum albumin (immunoglobulin binding detection) [1] | Result for incubation with human IgG-Fc (immunoglobulin binding detection) [2] | Result for incubation with human plasma (immunoglobulin binding detection) [3]

02Q: cellulose-bound 13-mer variant DQAWHLGELVWCT-(βA)(βA) (DQAWHLGELVWCT[βAla][βAla]; not fully specified; printed as DQAWHLGELVWCT-(βA)(βA); also: cellulose-bound)
0: Result for incubation with serum albumin (immunoglobulin binding detection) [1] | Result for incubation with human IgG-Fc (immunoglobulin binding detection) [2] | Result for incubation with human plasma (immunoglobulin binding detection) [3]

02R: cellulose-bound 13-mer variant DRAWHLGELVWCT-(βA)(βA) (DRAWHLGELVWCT[βAla][βAla]; not fully specified; printed as DRAWHLGELVWCT-(βA)(βA); also: cellulose-bound)
0: Result for incubation with serum albumin (immunoglobulin binding detection) [1] | Result for incubation with human IgG-Fc (immunoglobulin binding detection) [2] | Result for incubation with human plasma (immunoglobulin binding detection) [3]

02S: cellulose-bound 13-mer variant DSAWHLGELVWCT-(βA)(βA) (DSAWHLGELVWCT[βAla][βAla]; not fully specified; printed as DSAWHLGELVWCT-(βA)(βA); also: cellulose-bound)
0: Result for incubation with serum albumin (immunoglobulin binding detection) [1] | Result for incubation with human IgG-Fc (immunoglobulin binding detection) [2] | Result for incubation with human plasma (immunoglobulin binding detection) [3]

02T: cellulose-bound 13-mer variant DTAWHLGELVWCT-(βA)(βA) (DTAWHLGELVWCT[βAla][βAla]; not fully specified; printed as DTAWHLGELVWCT-(βA)(βA); also: cellulose-bound)
0: Result for incubation with serum albumin (immunoglobulin binding detection) [1] | Result for incubation with human IgG-Fc (immunoglobulin binding detection) [2] | Result for incubation with human plasma (immunoglobulin binding detection) [3]

02V: cellulose-bound 13-mer variant DVAWHLGELVWCT-(βA)(βA) (DVAWHLGELVWCT[βAla][βAla]; not fully specified; printed as DVAWHLGELVWCT-(βA)(βA); also: cellulose-bound)
0: Result for incubation with serum albumin (immunoglobulin binding detection) [1] | Result for incubation with human IgG-Fc (immunoglobulin binding detection) [2] | Result for incubation with human plasma (immunoglobulin binding detection) [3]

02W: cellulose-bound 13-mer variant DWAWHLGELVWCT-(βA)(βA) (DWAWHLGELVWCT[βAla][βAla]; not fully specified; printed as DWAWHLGELVWCT-(βA)(βA); also: cellulose-bound)
0: Result for incubation with serum albumin (immunoglobulin binding detection) [1] | Result for incubation with human IgG-Fc (immunoglobulin binding detection) [2] | Result for incubation with human plasma (immunoglobulin binding detection) [3]

02Y: cellulose-bound 13-mer variant DYAWHLGELVWCT-(βA)(βA) (DYAWHLGELVWCT[βAla][βAla]; not fully specified; printed as DYAWHLGELVWCT-(βA)(βA); also: cellulose-bound)
0: Result for incubation with serum albumin (immunoglobulin binding detection) [1] | Result for incubation with human IgG-Fc (immunoglobulin binding detection) [2] | Result for incubation with human plasma (immunoglobulin binding detection) [3]

03C: cellulose-bound 13-mer variant DCCWHLGELVWCT-(βA)(βA) (DCCWHLGELVWCT-{βAla-βAla-cellulose}; disulfide (positions not given here); not fully specified; printed as DCCWHLGELVWCT-(βA)(βA); reading uncertain)
0: Result for incubation with serum albumin (immunoglobulin binding detection) [1] | Result for incubation with human IgG-Fc (immunoglobulin binding detection) [2] | Result for incubation with human plasma (immunoglobulin binding detection) [3]

03D: cellulose-bound 13-mer variant DCDWHLGELVWCT-(βA)(βA) (DCDWHLGELVWCT-{βAla-βAla-cellulose}; disulfide 2-12 (inferred); reading uncertain; also: printed as DCDWHLGELVWCT-(βA)(βA))
0: Result for incubation with serum albumin (immunoglobulin binding detection) [1] | Result for incubation with human IgG-Fc (immunoglobulin binding detection) [2] | Result for incubation with human plasma (immunoglobulin binding detection) [3]
